Source: patent publication US7138361B2, “Herbicidal heterocycles” (E. I. du Pont de Nemours and Company, priority 2000, dated 2006)

Assays:
Format in all cases: in vivo
[1] = system: Sunflower; assay: Test C preemergence; conditions: Rate 250 g/ha, visual evaluation after 12 to 14 days
[2] = system: morning glory (Ipomoea hederacea); assay: Test B postemergence; conditions: 13 to 15 days
Method in brief: (§1)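 Ratings on a 0 to 100 visual scale (100 complete control) compare treated plants with controls 13 to 15 days after application. Treatments were pre- or postemergence sprays of compound in non-phytotoxic solvent with surfactant.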

[3] = system: lambsquarters (Chenopodium album); assay: Test B postemergence; conditions: 13 to 15 days
Method in brief: as §1

[4] = system: velvetleaf (Abutilon theophrasti); assay: Test B postemergence; conditions: 13 to 15 days
Method in brief: as §1

[5] = system: corn (Zea mays); assay: Test B postemergence; conditions: 13 to 15 days
Method in brief: as §1

[6] = system: crabgrass (Digitaria sanguinalis); assay: Test B postemergence; conditions: 13 to 15 days
Method in brief: as §1

[7] = system: barnyardgrass (Echinochloa crus-galli); assay: Test B postemergence; conditions: 13 to 15 days
Method in brief: as §1

[8] = system: wild oat (Avena fatua); assay: Test B postemergence; conditions: 13 to 15 days
Method in brief: as §1

[9] = system: pigweed (Amaranthus retroflexus); assay: Test B postemergence; conditions: 13 to 15 days
Method in brief: as §1

[10] = system: cocklebur (Xanthium strumarium); assay: Test B postemergence; conditions: 13 to 15 days
Method in brief: as §1

[11] = system: wheat (Triticum aestivum); assay: Test B postemergence; conditions: 13 to 15 days
Method in brief: as §1

[12] = system: giant foxtail (Setaria faberii); assay: Test B postemergence; conditions: 13 to 15 days
Method in brief: as §1

[13] = system: Surinam grass (Brachiaria decumbens); assay: Test B postemergence; conditions: 13 to 15 days
Method in brief: as §1

[14] = system: blackgrass (Alopecurus myosuroides); assay: Test B postemergence; conditions: 13 to 15 days
Method in brief: as §1

[15] = system: Sunflower; assay: Test C preemergence; conditions: Rate 125 g/ha, scale 0 to 100, 0 no effect, 100 complete control
[16] = system: smallflower flatsedge (Cyperus difformis); assay: Test C flooded paddy test; conditions: for Flatsedge plant response rating: Flooded Paddy, scale 0 to 100, 0 no effect, 100 complete control; for Plant response rating, Flatsedge / Plant response rating (scale 0 to 100), Flatsedge: flooded paddy test; for Plant response rating, Flatsedge: scale 0 to 100 (0 no effect, 100 complete control)
Method in brief: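 Visual ratings (0 = no effect, 100 = complete control) were made 12–14 days after treatment, relative to greenhouse controls. Plants in the flooded paddy test were rice, smallflower flatsedge, duck salad and barnyardgrass, treated at the 2-leaf stage.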

[17] = system: morning glory (Ipomoea hederacea); assay: Test B preemergence; conditions: Preemergence, Rate 500 g/ha; scale 0 to 100, 0 no effect, 100 complete control
Method in brief: as §1

[18] = system: lambsquarters (Chenopodium album); assay: Test B preemergence; conditions: scale 0 to 100, 0 no effect, 100 complete control
Method in brief: as §1

[19] = system: velvetleaf (Abutilon theophrasti); assay: Test B preemergence; conditions: Preemergence, Rate 500 g/ha; scale 0 to 100, 0 no effect, 100 complete control
Method in brief: as §1

[20] = system: corn (Zea mays); assay: Test B preemergence; conditions: scale 0 to 100, 0 no effect, 100 complete control
Method in brief: as §1

[21] = system: crabgrass (Digitaria sanguinalis); assay: Test B preemergence; conditions: scale 0 to 100, 0 no effect, 100 complete control
Method in brief: as §1

[22] = system: barnyardgrass (Echinochloa crus-galli); assay: Test B preemergence; conditions: scale 0 to 100, 0 no effect, 100 complete control
Method in brief: as §1

[23] = system: rice (Oryza saliva); assay: Test B preemergence; conditions: Preemergence, Rate 500 g/ha; scale 0 to 100, 0 no effect, 100 complete control
Method in brief: as §1

[24] = system: pigweed (Amaranthus retroflexus); assay: Test B preemergence; conditions: Preemergence, Rate 500 g/ha; scale 0 to 100, 0 no effect, 100 complete control
Method in brief: as §1

[25] = system: cocklebur (Xanthium strumarium); assay: Test B preemergence; conditions: scale 0 to 100, 0 no effect, 100 complete control
Method in brief: as §1

[26] = system: giant foxtail (Setaria faberii); assay: Test B preemergence; conditions: scale 0 to 100, 0 no effect, 100 complete control
Method in brief: as §1

[27] = system: Surinam grass (Brachiaria decumbens); assay: Test B preemergence; conditions: scale 0 to 100, 0 no effect, 100 complete control
Method in brief: as §1

[28] = Rate 125 g/ha, scale 0 (no effect) to 100 (complete control)
[29] = Rate 500 g/ha, scale 0 to 100, 0 is no effect, 100 is complete control

## O=C1C(n2ccc(C3CC3)n2)OCN1c1cccc(C(F)(F)F)c1 (stereo not drawn) [Compound 28]
[1]
  Plant response rating (0 to 100), Sunflower: 40
[2]; [28]
  Plant response rating, Morningglory: 0
[2]; [29]
  Plant response rating, Morningglory: 0
[3]; [28]
  Plant response rating, Lambsquarters: 60
[3]; [29]
  Plant response rating, Lambsquarters: 70
[4]; [28]
  Plant response rating, Velvetleaf: 0
[4]; [29]
  Plant response rating, Velvetleaf: 0
[5]; [28]
  Plant response rating, Corn: 0
[5]; [29]
  Plant response rating, Corn: 0
[6]; [28]
  Plant response rating, Crabgrass: 20
[6]; [29]
  Plant response rating, Crabgrass: 30
[7]; [28]
  Plant response rating, Barnyardgrass: 0
[7]; [29]
  Plant response rating, Barnyardgrass: 60
[8]; [28]
  Plant response rating, Wild Oat: 0
[8]; [29]
  Plant response rating, Wild Oat: 0
[9]; [28]
  Plant response rating, Pigweed: 30
[9]; [29]
  Plant response rating, Pigweed: 30
[10]; [28]
  Plant response rating, Cocklebur: 0
[10]; [29]
  Plant response rating, Cocklebur: 0
[11]; [28]
  Plant response rating, Wheat: 0
[11]; [29]
  Plant response rating, Wheat: 0
[12]; [28]
  Plant response rating, Foxtail, Giant: 0
[12]; [29]
  Plant response rating, Foxtail, Giant: 30
[13]; [28]
  Plant response rating, Surinam grass: 0
[13]; [29]
  Plant response rating, Surinam grass: 0
[14]; [28]
  Plant response rating, Blackgrass: 0
[14]; [29]
  Plant response rating, Blackgrass: 0
[15]
  Plant response rating, Sunflower: 40
[16]; Rate 250 g/ha
  Flatsedge plant response rating: 100
[16]; Rate 500 g/ha
  Flatsedge plant response rating: 100
[16]; Rate 62 g/ha
  Plant response rating, Flatsedge: 80
[16]; Rate 125 g/ha
  Plant response rating, Flatsedge: 80
[17]
  Plant response rating, Morningglory: 0
[18]; Preemergence, Rate 500 g/ha
  Plant response rating, Lambsquarters: 100
[18]; preemergence, Rate 125 g/ha
  Plant response rating, Lambsquarters: 100
[19]
  Plant response rating, Velvetleaf: 0
[20]; Preemergence, Rate 500 g/ha
  Plant response rating, Corn: 0
[20]; preemergence, Rate 125 g/ha
  Plant response rating, Corn: 0
[21]; Preemergence, Rate 500 g/ha
  Plant response rating, Crabgrass: 100
[21]; preemergence, Rate 125 g/ha
  Plant response rating, Crabgrass: 20
[22]; Preemergence, Rate 500 g/ha
  Plant response rating, Barnyardgrass: 100
[22]; preemergence, Rate 125 g/ha
  Plant response rating, Barnyardgrass: 50
[23]
  Plant response rating, Rice: 40
[24]
  Plant response rating, Pigweed: 100
[25]; Preemergence, Rate 500 g/ha
  Plant response rating, Cocklebur: 100
[25]; preemergence, Rate 125 g/ha
  Plant response rating, Cocklebur: 0
[26]; Preemergence, Rate 500 g/ha
  Plant response rating, Foxtail, Giant: 100
[26]; preemergence, Rate 125 g/ha
  Plant response rating, Foxtail, Giant: 20
[27]; Preemergence, Rate 500 g/ha
  Plant response rating, Surinam grass: 70
[27]; preemergence, Rate 125 g/ha
  Plant response rating, Surinam grass: 0

## CC(C)(C)c1ccn(C2SCN(c3cccc(OC(F)(F)F)c3)C2=O)n1 (stereo not drawn) [Compound 30]
[1]
  Plant response rating (0 to 100), Sunflower: 80
[2]; [28]
  Plant response rating, Morningglory: 40
[2]; [29]
  Plant response rating, Morningglory: 90
[3]; [28]
  Plant response rating, Lambsquarters: 90
[3]; [29]
  Plant response rating, Lambsquarters: 90
[4]; [28]
  Plant response rating, Velvetleaf: 0
[4]; [29]
  Plant response rating, Velvetleaf: 0
[5]; [28]
  Plant response rating, Corn: 0
[5]; [29]
  Plant response rating, Corn: 0
[6]; [28]
  Plant response rating, Crabgrass: 50
[6]; [29]
  Plant response rating, Crabgrass: 100
[7]; [28]
  Plant response rating, Barnyardgrass: 100
[7]; [29]
  Plant response rating, Barnyardgrass: 100
[8]; [28]
  Plant response rating, Wild Oat: 0
[8]; [29]
  Plant response rating, Wild Oat: 0
[9]; [28]
  Plant response rating, Pigweed: 100
[9]; [29]
  Plant response rating, Pigweed: 100
[10]; [28]
  Plant response rating, Cocklebur: 70
[10]; [29]
  Plant response rating, Cocklebur: 70
[11]; [28]
  Plant response rating, Wheat: 0
[11]; [29]
  Plant response rating, Wheat: 0
[12]; [28]
  Plant response rating, Foxtail, Giant: 10
[12]; [29]
  Plant response rating, Foxtail, Giant: 80
[13]; [28]
  Plant response rating, Surinam grass: 0
[13]; [29]
  Plant response rating, Surinam grass: 20
[14]; [28]
  Plant response rating, Blackgrass: 0
[14]; [29]
  Plant response rating, Blackgrass: 20
[15]
  Plant response rating, Sunflower: 80
[16]; Rate 250 g/ha
  Flatsedge plant response rating: 100
[16]; Rate 500 g/ha
  Flatsedge plant response rating: 100
[16]; Rate 62 g/ha
  Plant response rating, Flatsedge: 90
[16]; Rate 125 g/ha
  Plant response rating, Flatsedge: 100
[16]; Rate 16 g/ha, visually evaluated after 12 to 14 days, 0 = no effect, 100 = complete control
  Plant response rating (scale 0 to 100), Flatsedge: 90
[16]; under head Rate 16 g/ha, (own rate not given), after 12 to 14 days
  Plant response rating (scale 0 to 100), Flatsedge: 90
[17]
  Plant response rating, Morningglory: 90
[18]; Preemergence, Rate 500 g/ha
  Plant response rating, Lambsquarters: 100
[18]; preemergence, Rate 125 g/ha
  Plant response rating, Lambsquarters: 100
[19]
  Plant response rating, Velvetleaf: 40
[20]; Preemergence, Rate 500 g/ha
  Plant response rating, Corn: 0
[20]; preemergence, Rate 125 g/ha
  Plant response rating, Corn: 0
[21]; Preemergence, Rate 500 g/ha
  Plant response rating, Crabgrass: 100
[21]; preemergence, Rate 125 g/ha
  Plant response rating, Crabgrass: 20
[22]; Preemergence, Rate 500 g/ha
  Plant response rating, Barnyardgrass: 100
[22]; preemergence, Rate 125 g/ha
  Plant response rating, Barnyardgrass: 40
[23]
  Plant response rating, Rice: 0
[24]
  Plant response rating, Pigweed: 100
[25]; Preemergence, Rate 500 g/ha
  Plant response rating, Cocklebur: 90
[25]; preemergence, Rate 125 g/ha
  Plant response rating, Cocklebur: 0
[26]; Preemergence, Rate 500 g/ha
  Plant response rating, Foxtail, Giant: 100
[26]; preemergence, Rate 125 g/ha
  Plant response rating, Foxtail, Giant: 70
[27]; Preemergence, Rate 500 g/ha
  Plant response rating, Surinam grass: 60
[27]; preemergence, Rate 125 g/ha
  Plant response rating, Surinam grass: 40
